For orientation: IC50 means the concentration needed to halve the response being measured. A lower IC50 goes with inhibition by little substance. A word on the Ki: it is a measure of affinity in units of concentration, obtained from inhibition or displacement. Lower therefore signals tighter binding.

For one test, the target named is Alpha-galactosidase (Coffea arabica, UniProt Q42656). Description: Inhibition Assay Against Commercial Glycosidases. As to conditions: 37 °C. The method, then: (§1) In a 96-well plates, 10µL of commercial enzyme solutions without (control) or with 20µL of inhibitor were incubated at 37°C for 5 min. After addition of 20µL of substrate solution, incubations were prolonged for different time periods: 10 min for β-glucosidase (almond), 5 min for α-glucosidase (saccharomyces cerevisiae) and 8 min for β-galactosidase (bovine liver) and α-galactosidase (green coffee beans) and stopped by addition of 150µL of glycine/NaOH buffer (100mM, pH 10.6). The amount of 4-MU formed was determined at 355nm (excitation) and 460nm (emission). For β-glucosidase (almond), the activity was determined with 4-MU-β-D-Glu (1mM) in sodium acetate buffer (100 mM, pH 5.2). For α-glucosidase (saccharomyces cerevisiae), the activity was determined with4-methylumbelliferyl-α-D-glucopyranoside (4-MU-α-D-Glu, 1 mM) in sodium phosphate buffer (100 mM, pH 7.2). For β-galactosidase (bovine liver), the activity was determined with 4-me

The target in the next test is Alpha-glucosidase MAL12 (Saccharomyces cerevisiae (strain ATCC 204508 / S288c), UniProt P53341). Description: Inhibition Assay Against Commercial Glycosidases. The following applies: 37 °C. The procedure: as §1
The target in another test is T1, Prunasin hydrolase (Prunus dulcis, UniProt H9ZGE1).
T1 sequence (H9ZGE1 whole entry): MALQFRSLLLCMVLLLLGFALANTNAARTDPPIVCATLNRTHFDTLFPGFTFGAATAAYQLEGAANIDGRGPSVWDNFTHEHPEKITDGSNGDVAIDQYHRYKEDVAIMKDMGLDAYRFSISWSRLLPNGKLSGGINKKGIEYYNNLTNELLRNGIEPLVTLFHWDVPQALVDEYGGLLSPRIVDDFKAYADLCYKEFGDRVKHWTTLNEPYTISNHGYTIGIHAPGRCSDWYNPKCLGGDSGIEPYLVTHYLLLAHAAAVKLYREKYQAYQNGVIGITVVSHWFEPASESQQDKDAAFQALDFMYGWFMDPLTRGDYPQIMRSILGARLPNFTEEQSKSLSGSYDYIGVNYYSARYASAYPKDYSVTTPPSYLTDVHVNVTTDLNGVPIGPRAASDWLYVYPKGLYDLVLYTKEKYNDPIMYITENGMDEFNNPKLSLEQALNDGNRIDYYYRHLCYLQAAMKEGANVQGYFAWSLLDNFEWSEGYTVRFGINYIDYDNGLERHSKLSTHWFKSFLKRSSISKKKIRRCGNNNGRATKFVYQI
Description: Inhibition Assay Against Commercial Glycosidases. As to conditions: 37 °C. The method, then: as §1

Test [1] concerns the target T2, Lysosomal acid glucosylceramidase (Homo sapiens, UniProt P04062).
T2 sequence (P04062 whole entry): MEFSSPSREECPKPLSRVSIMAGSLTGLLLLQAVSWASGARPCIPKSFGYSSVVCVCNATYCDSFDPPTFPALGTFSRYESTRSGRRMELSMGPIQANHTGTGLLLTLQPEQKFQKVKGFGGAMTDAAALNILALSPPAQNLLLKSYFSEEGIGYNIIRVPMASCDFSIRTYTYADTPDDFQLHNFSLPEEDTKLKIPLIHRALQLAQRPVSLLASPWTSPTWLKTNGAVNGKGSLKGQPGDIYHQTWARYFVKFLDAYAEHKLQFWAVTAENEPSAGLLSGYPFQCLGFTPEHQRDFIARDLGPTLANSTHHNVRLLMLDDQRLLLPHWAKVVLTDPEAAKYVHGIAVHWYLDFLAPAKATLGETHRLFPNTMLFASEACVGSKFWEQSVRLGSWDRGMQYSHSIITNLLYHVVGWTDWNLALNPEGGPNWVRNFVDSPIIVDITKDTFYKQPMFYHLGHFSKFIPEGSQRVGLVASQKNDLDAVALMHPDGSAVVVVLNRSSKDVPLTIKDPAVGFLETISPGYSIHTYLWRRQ
As to the kind of experiment: GCase IC50 Assay.

In another test the target is T3, Beta-galactosidase (Bos taurus, UniProt Q58D55).
T3 sequence (Q58D55 whole entry): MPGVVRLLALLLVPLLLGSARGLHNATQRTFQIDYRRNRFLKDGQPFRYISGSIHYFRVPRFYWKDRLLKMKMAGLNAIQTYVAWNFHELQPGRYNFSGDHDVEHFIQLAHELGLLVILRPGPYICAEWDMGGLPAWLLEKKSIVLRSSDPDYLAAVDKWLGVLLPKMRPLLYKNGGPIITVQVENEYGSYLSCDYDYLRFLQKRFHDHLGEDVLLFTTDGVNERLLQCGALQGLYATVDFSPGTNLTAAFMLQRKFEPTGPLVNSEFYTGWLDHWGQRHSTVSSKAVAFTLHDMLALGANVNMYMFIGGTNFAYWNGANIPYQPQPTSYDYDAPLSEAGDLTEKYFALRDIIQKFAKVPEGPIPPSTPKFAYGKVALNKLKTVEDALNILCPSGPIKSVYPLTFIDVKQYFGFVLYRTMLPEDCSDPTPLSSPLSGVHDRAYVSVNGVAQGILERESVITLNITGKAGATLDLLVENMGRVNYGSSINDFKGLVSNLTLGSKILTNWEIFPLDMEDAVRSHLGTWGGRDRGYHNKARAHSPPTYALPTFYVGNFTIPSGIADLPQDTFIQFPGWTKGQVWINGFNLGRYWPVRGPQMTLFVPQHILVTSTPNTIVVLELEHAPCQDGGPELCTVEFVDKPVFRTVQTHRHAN
Description: Inhibition Assay Against Commercial Glycosidases. As to conditions: 37 °C. The procedure:
as §1

The target of test [2] is T2, Lysosomal acid glucosylceramidase. Description: GCase Ki Assay. The following applies: pH 5.2.

Chain of Alpha-glucosidase MAL12 (P53341 whole entry): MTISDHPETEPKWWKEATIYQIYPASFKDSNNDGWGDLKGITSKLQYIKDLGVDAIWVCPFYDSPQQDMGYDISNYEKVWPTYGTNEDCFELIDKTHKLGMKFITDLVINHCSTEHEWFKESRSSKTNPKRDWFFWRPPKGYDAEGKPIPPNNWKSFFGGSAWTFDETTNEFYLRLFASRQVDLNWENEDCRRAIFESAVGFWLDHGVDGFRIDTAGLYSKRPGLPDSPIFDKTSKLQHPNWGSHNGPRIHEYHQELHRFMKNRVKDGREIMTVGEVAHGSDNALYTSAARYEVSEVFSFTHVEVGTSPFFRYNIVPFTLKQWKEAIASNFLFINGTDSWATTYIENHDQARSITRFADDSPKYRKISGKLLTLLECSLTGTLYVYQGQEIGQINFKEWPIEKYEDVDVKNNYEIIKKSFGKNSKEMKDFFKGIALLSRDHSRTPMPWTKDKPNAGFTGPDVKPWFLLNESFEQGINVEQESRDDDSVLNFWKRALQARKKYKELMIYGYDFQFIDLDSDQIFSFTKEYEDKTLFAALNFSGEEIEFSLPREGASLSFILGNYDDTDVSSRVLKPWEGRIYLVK
Chain of Alpha-galactosidase (Q42656 whole entry): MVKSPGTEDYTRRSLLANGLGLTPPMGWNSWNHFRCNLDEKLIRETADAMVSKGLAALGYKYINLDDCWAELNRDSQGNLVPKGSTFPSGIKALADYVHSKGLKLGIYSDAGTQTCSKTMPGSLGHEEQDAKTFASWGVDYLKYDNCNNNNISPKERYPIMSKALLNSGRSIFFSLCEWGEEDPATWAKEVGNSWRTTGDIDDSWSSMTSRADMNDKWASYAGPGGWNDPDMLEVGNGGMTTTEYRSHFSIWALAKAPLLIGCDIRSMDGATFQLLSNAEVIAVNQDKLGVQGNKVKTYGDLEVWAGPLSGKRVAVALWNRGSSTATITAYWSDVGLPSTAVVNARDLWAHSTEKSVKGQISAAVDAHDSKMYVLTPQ

Consider `CCCCCCCCCN1C[C@H](O)[C@@H](O)[C@H](O)[C@H]1CO`, for which the IC50 on Alpha-galactosidase is 9490 nM; against Alpha-glucosidase MAL12 it was more than 100000 nM; against Prunasin hydrolase, 95900 nM.

With `CC(C)(CCCc1cn2c(n1)C(O)C(O)C(O)C2CO)C(=O)Nc1ccccc1` (centres undefined) [2,2-dimethyl-N-phenyl-5-[6,7,8-trihydroxy-5-(hydroxymethyl)-5H,6H,7H,8H-imidazo[1,2-a]pyridin-2-yl]pentanamide (Compound 11)], the IC50 in test [1] (pH 5.2) amounted to 12 nM; in test [1] (pH 7) it was 11.5 nM; at Alpha-galactosidase it was 4710 nM; on Alpha-glucosidase MAL12 it was 12800 nM; at Beta-galactosidase, 7830 nM; at Prunasin hydrolase it was 910 nM. This compound also registered a Ki in test [2] of 18.9 nM.

With `CC(C)(C)CCc1cn2c(n1)C(O)C(O)C(O)C2CO` (centres undefined) [2-(3,3-dimethylbutyl)-5-(hydroxymethyl)-5H,6H,7H,8H-imidazo[1,2-a]pyridine-6,7,8-triol (Compound 3)], the IC50 in test [1] (pH 5.2) turned out to be 5.34 nM; in test [1] (pH 7) it was 4.26 nM; against Alpha-galactosidase, 12800 nM; on Alpha-glucosidase MAL12, 3420 nM; against Beta-galactosidase it was 350 nM; against Prunasin hydrolase, 79 nM. In addition, the Ki in test [2] amounted to 5.34 nM.

Consider `OCC1C(O)C(O)C(O)c2nc(CCCc3ccc(C4CCCCC4)cc3)cn21` (centres undefined) [2-[3-(4-cyclohexylphenyl)propyl]-5-(hydroxymethyl)-5H,6H,7H,8H-imidazo[1,2-a]pyridine-6,7,8-triol (Compound 8)], for which the IC50 in test [1] (pH 5.2) came to 8.42 nM; in test [1] (pH 7) it was 7.8 nM; against Alpha-galactosidase, 11400 nM; against Alpha-glucosidase MAL12 it was 52 nM; against Beta-galactosidase, 1 nM; on Prunasin hydrolase it was 4 nM. The compound also had a Ki in test [2] of 1.93 nM.

For `OCC1C(O)C(O)C(O)c2nc(CCCc3ccc(F)cc3)cn21` (centres undefined) [2-[3-(4-fluorophenyl)propyl]-5-(hydroxymethyl)-5H,6H,7H,8H-imidazo[1,2-a]pyridine-6,7,8-triol (Compound 9)], the IC50 was 6.23 nM in test [1] (pH 5.2); 4.75 nM in test [1] (pH 7); 3750 nM against Alpha-galactosidase; 730 nM against Alpha-glucosidase MAL12; 230 nM on Beta-galactosidase; 31 nM at Prunasin hydrolase. The compound further had a Ki in test [2] of 3.48 nM.

`OCC1C(O)C(O)C(O)c2nc(CCc3ccccc3)cn21` (centres undefined) [5-(hydroxymethyl)-2-(2-phenylethyl)-5H,6H,7H,8H-imidazo[1,2-a]pyridine-6,7,8-triol (Compound 2)]: the IC50 in test [1] (pH 5.2) was 3.71 nM; in test [1] (pH 7), 2.04 nM; on Alpha-galactosidase, 16100 nM; at Alpha-glucosidase MAL12 it was 570 nM; at Beta-galactosidase, 190 nM; against Prunasin hydrolase, 58 nM. In test [2], this compound came in with a Ki of 3.19 nM.

Regarding `COc1ccc(CCCc2cn3c(n2)C(O)C(O)C(O)C3CO)cc1` (centres undefined) [5-(hydroxymethyl)-2-[3-(4-methoxyphenyl)propyl]-5H,6H,7H,8H-imidazo[1,2-a]pyridine-6,7,8-triol (Compound 6)], the IC50 in test [1] (pH 5.2) is 2.97 nM; in test [1] (pH 7) it was 3.62 nM; on Alpha-galactosidase, 4900 nM; against Alpha-glucosidase MAL12 it was 300 nM; against Beta-galactosidase, 92 nM; against Prunasin hydrolase it was 78 nM. The Ki in test [2] came out at 1.17 nM.

On to `Cc1ccc(CCCc2cn3c(n2)C(O)C(O)C(O)C3CO)cc1` (centres undefined) [5-(hydroxymethyl)-2-[3-(4-methylphenyl)propyl]-5H,6H,7H,8H-imidazo[1,2-a]pyridine-6,7,8-triol (Compound 5)], for which the IC50 in test [1] (pH 5.2) was 5.44 nM; in test [1] (pH 7), 4.73 nM; on Alpha-galactosidase it was 4480 nM; against Alpha-glucosidase MAL12, 280 nM; at Beta-galactosidase it was 100 nM; on Prunasin hydrolase, 42 nM. For the same compound, the Ki in test [2] was 1.46 nM.

With `OCC1C(O)C(O)C(O)c2nc(CCCc3ccc(-c4ccccc4)cc3)cn21` (centres undefined) [5-(hydroxymethyl)-2-[3-(4-phenylphenyl)propyl]-5H,6H,7H,8H-imidazo[1,2-a]pyridine-6,7,8-triol (Compound 7)], the IC50 is 5.27 nM in test [1] (pH 5.2); 5.11 nM in test [1] (pH 7); 1660 nM on Alpha-galactosidase; 6 nM against Alpha-glucosidase MAL12; 42 nM against Prunasin hydrolase. In test [2], this compound had a Ki of 3.62 nM.

With `CCCCCCCCc1cn2c(n1)C(O)C(O)C(O)C2CO` (centres undefined) [5-(hydroxymethyl)-2-octyl-5H,6H,7H,8H-imidazo[1,2-a]pyridine-6,7,8-triol (Compound 4)], the IC50 in test [1] (pH 5.2) is 8.39 nM; in test [1] (pH 7), 5.05 nM; against Alpha-galactosidase, 12500 nM; at Alpha-glucosidase MAL12, 970 nM; at Beta-galactosidase, 37 nM; on Prunasin hydrolase it was 117 nM. Affinity in test [2] was put at a Ki of 5.38 nM.

`OCC1C(O)C(O)C(O)c2nccn21` (centres undefined) [5-(hydroxymethyl)-5H,6H,7H,8H-imidazo[1,2-a]pyridine-6,7,8-triol (Compound 1)]: the IC50 came out at 91.6 nM in test [1] (pH 5.2); 79.2 nM in test [1] (pH 7); 7290 nM on Alpha-galactosidase; 98500 nM against Alpha-glucosidase MAL12; 230 nM at Beta-galactosidase; 220 nM against Prunasin hydrolase. In test [2], affinity was put at a Ki of 33.1 nM.

As to `O=C(CCCc1cn2c(n1)C(O)C(O)C(O)C2CO)Nc1ccccc1` (centres undefined) [N-phenyl-4-[6,7,8-trihydroxy-5-(hydroxymethyl)-5H,6H,7H,8H-imidazo[1,2-a]pyridin-2-yl]butanamide (Compound 10)], the IC50 was 6.96 nM in test [1] (pH 5.2); 7.67 nM in test [1] (pH 7); 1480 nM at Alpha-galactosidase; 1050 nM against Alpha-glucosidase MAL12; 11800 nM against Beta-galactosidase; 140 nM at Prunasin hydrolase. Moreover, the affinity in test [2], expressed as Ki, was 4.18 nM.

The values above are taken from BindingDB's records for doi:10.1002/cbic.201300197 (Nankai University, 2013).
